In the NIST ThermoML archive (doi:10.1016/j.fluid.2008.02.018):
Where “and” joins values, the source holds several entries; their conditions need not be identical. Identical values can stand only once. ± gives the expanded uncertainty stated by the source.

Key:
[1] = Liquid; for mass density: 101.33 kPa
[2] = refractive index (Na D-line) (dimensionless); settings: 298.15 K; 101.33 kPa; Liquid; Standard Abbe refractometry

Row | Structure (SMILES) | mass density ([1]; 298.15 K) | vapor or sublimation pressure ([1]; 298.15 K) | vapor or sublimation pressure ([1]; 308.15 K) | vapor or sublimation pressure ([1]; 318.15 K) | refractive index [2]
1 | ClCCCl [1,2-dichloroethane] | 1250.9 ± 1.7 kg/m3 | 10.81 ± 0.23 kPa | 17.02 ± 0.31 kPa | 25.77 ± 0.42 kPa | 1.4421 ± 0.0007
2 | O=C1CCCCC1 [cyclohexanone] | 943 ± 1.2 kg/m3 | 0.64 ± 0.06 kPa | 1.15 ± 0.08 kPa | 1.91 ± 0.09 kPa | 1.4482 ± 0.0007
3 | O=C1CCCC1 [cyclopentanone] | 945.3 ± 1.2 kg/m3 | 1.72 ± 0.09 kPa | 2.8 ± 0.1 kPa | 4.64 ± 0.13 kPa | 1.4347 ± 0.0007
4 | ClC(Cl)Cl [trichloromethane] | 1475.9 ± 2.1 kg/m3 | 26.44 ± 0.48 kPa | 40.19 ± 0.65 kPa | 58.69 ± 0.87 kPa and 58.68 ± 0.87 kPa | 1.4428 ± 0.0007
